Experimental data published in PMC3813752 (PLoS ONE, 2013).
Where “and” joins values, the source holds several entries; their conditions need not be identical. Identical values can stand only once. Entries after “also recorded” stand apart in the source; their conditions may differ. Like-named read-outs stand apart in the source and are kept apart here. Marks after values point to notes of the source that are not given here.

Tests used:
[1] = molecular target: T1, human CB2 receptor (Homo sapiens, UniProt P34972); assay: Radioligand binding (heterologous competition) vs. [3H]CP55,940 at CB2
[2] = molecular target: T1, human CB2 receptor; assay: cAMP accumulation assay, CHO cells expressing CB2; format: cell-based; settings: for functional property at CB2 (agonist/antagonist): in words, standard ligands partly from the literature; for efficacy CB2, cAMP accumulation assay: at 10 µM, compared to max. effect of full agonist CP55,940 (1 µM) = 100%
[3] = molecular target: T2, human GPR18 (Homo sapiens, UniProt Q14330); settings: for functional property at GPR18 (agonist/antagonist): in words; for agonist effect on β-arrestin recruitment at GPR18: test compound 10 µM, related to effect of Δ9-THC 10 µM = 100%
T2 sequence (Q14330 1-331): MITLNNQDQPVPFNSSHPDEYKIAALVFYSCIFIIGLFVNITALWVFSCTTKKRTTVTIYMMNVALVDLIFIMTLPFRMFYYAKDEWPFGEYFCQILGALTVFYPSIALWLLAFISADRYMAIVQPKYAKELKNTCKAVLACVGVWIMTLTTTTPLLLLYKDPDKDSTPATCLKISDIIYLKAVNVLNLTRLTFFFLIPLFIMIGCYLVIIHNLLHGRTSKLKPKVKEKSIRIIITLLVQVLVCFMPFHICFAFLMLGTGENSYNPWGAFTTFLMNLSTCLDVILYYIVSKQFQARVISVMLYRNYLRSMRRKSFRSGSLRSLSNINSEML

[4] = molecular target: T1, human CB2 receptor; settings: in words; cited from earlier work
[5] = molecular target: T2, human GPR18; assay: cell-based; settings: for inhibition at 10 µM: CHO, read-out: % inhibition of Δ9-THC (10 µM)-induced β-arrestin recruitment at GPR18, test compound at 10 µM; for IC50: GPR18 IC50, β-arrestin recruitment, antagonist mode vs. Δ9-THC (10 µM)
[6] = molecular target: human GPR55 (Homo sapiens, UniProt Q9Y2T6); assay: β-arrestin recruitment assay (PathHunter), CHO cells expressing GPR55; settings: for inhibition at 10 µM: CHO; for IC50: GPR55 IC50, β-arrestin recruitment, antagonist mode vs. LPI (1 µM); for functional property at GPR55 (agonist/antagonist): in words; for agonist effect on β-arrestin recruitment at GPR55: test compound 10 µM, related to effect of LPI 1 µM = 100%
[7] = molecular target: T3, human CB1 receptor (Homo sapiens, UniProt P21554); assay: biochemical; format: binding; settings: for Ki: membranes of CHO cells expressing human CB1, three independent experiments in duplicates, read-out: Ki CB1, heterologous competition vs. [3H]CP55,940; for increase in CB1 receptor affinity compared to the unmethylated parent biphenyl: 60a vs 60, 61a vs 61
[8] = molecular target: T3, human CB1 receptor; assay: cAMP accumulation assay, CHO cells expressing CB1; format: cell-based; settings: for functional property at CB1 (agonist/antagonist): in words, standard ligands partly from the literature; for efficacy CB1, cAMP accumulation assay: at 10 µM, compared to max. effect of full agonist CP55,940 (1 µM) = 100%
[9] = Ki CB2, heterologous competition vs. [3H]CP55,940, membranes of CHO cells expressing human CB2, three independent experiments in duplicates
[10] = read-out: % inhibition of LPI (1 µM)-induced β-arrestin recruitment at GPR55, test compound at 10 µM
[11] = inhibition of forskolin-stimulated cAMP, CHO-hCB1, read-out: EC50 CB1, cAMP accumulation assay
[12] = read-out: % inhibition of LPI (1 µM)-induced β-arrestin recruitment at GPR55
[13] = membranes of CHO cells expressing human CB2, three independent experiments in duplicates, read-out: Ki CB2, heterologous competition vs. [3H]CP55,940

T3 sequence (P21554 whole entry): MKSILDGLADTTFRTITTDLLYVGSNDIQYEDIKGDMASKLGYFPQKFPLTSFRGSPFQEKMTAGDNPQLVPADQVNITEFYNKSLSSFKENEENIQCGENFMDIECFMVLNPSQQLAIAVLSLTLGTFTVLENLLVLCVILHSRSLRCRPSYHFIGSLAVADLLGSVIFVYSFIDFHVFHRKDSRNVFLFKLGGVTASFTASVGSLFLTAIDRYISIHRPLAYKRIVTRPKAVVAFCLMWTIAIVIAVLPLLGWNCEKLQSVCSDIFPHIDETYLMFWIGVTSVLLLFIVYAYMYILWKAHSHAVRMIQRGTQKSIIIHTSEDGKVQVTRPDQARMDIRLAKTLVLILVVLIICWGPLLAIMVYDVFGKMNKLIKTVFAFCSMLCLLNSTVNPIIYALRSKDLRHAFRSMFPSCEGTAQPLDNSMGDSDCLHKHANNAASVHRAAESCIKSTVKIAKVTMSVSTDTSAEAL
Chain of human GPR55 (Q9Y2T6 whole entry): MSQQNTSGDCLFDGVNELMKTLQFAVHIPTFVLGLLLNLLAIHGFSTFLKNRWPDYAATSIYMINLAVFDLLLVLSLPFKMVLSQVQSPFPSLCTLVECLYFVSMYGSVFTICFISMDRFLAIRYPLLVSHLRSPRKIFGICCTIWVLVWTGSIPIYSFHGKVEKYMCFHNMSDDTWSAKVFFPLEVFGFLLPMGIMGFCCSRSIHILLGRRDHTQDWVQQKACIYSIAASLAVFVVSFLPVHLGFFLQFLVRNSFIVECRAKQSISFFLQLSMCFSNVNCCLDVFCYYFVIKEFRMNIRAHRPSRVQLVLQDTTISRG
T1 sequence (P34972 whole entry): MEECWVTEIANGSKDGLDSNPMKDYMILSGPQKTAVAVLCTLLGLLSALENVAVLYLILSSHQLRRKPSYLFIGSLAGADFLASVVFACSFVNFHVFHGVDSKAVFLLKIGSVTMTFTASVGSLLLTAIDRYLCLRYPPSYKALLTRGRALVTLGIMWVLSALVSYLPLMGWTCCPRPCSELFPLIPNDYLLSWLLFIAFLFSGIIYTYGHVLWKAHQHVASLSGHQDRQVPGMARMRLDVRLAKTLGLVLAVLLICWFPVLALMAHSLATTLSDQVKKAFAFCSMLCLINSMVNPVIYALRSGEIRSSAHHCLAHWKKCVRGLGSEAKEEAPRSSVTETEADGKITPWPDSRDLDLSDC

Compound | Ki [1, 9] [µM] | functional property at CB2 (agonist/antagonist) [2] | functional property at GPR18 (agonist/antagonist) [3] | agonist effect on β-arrestin recruitment at GPR18 [3] [%] | EC50 [5] [µM] | inhibition at 10 µM [5] [%] | IC50 [5] | EC50 [6] [µM] | inhibition at 10 µM [6, 10] [%] | IC50 [6] | functional property at GPR55 (agonist/antagonist) [6] | agonist effect on β-arrestin recruitment at GPR55 [6] [%] | Ki [7] [µM] | functional property at CB1 (agonist/antagonist) [8] | EC50 [2] [µM] | Ki [1, 13] [µM] | EC50 [8] [µM] | also measured
C=CCc1ccc(O)c(-c2ccc(OC)c(CC=C)c2)c1 [Compound 11, 4′-O-Methylhonokiol, reference compound] | 0.0433 ± 0.0171 | agonist | antagonist | 0 | > 10 | 37 | > 10 µM | > 10 | 87 | 7.77 ± 0.97 µM | antagonist | 4 | – | – | – | – | – | functional property at CB2 [4]: inverse agonist
CCCc1ccc(O)c(-c2cc(CCC)ccc2OC)c1 [Compound 12a, methoxytetrahydromagnolol] | 0.221 ± 0.057 | Full agonists; also recorded: agonist | antagonist | 26 | > 10 | 41 | ~10 µM | > 10 | – | 4.55 ± 1.08 µM | antagonist | 0 | 0.267 ± 0.058 | Full agonists; also recorded: agonist | 0.0778 ± 0.0205 | – | – | EC50 [8, 11]: 0.622 ± 0.284 µM; inhibition at 10 µM [6, 12]: 82%
CCCCc1ccc(O)c(-c2cc(CCCC)ccc2O)c1 [Compound 43] | – | – | – | 0 | > 10 | 74 | 12 ± 1.4 µM | > 10 | 0 | > 10 µM | – | 29 | 2.7 ± 1.2 | – | 0.378 ± 0.148 | 1.59 ± 0.04 | 7.11 ± 1.43 | –
CCCCCc1ccc(O)c(-c2cc(CCCCC)ccc2O)c1 [Compound 44] | – | – | – | 0 | > 10 | 128 | 12 ± 2.7 µM | > 10 | 2 | > 10 µM | – | 26 | 3.13 ± 1.13 | – | 2.3 ± 0.71 | 0.833 ± 0.123 | 4.54 ± 0.83 | –
CCCCCc1ccc(O)c(-c2cc(CCC)ccc2O)c1 [Compound 60, 5-Pentyl-5′-propylbiphenyl-2,2′-diol] | 0.0371 ± 0.0078 | partial agonists; also recorded: almost full efficacy; also recorded: agonist | antagonist | 0 | > 10 | 118 | 14.5 ± 2.8 µM | > 10 | 45 | > 10 µM and ~10 µM | antagonist | 28 | 0.362 ± 0.113 | full agonistic effects; also recorded: full agonists; also recorded: agonist | 0.258 ± 0.013 | – | 0.971 ± 0.089 | –
CCCCCc1ccc(O)c(-c2cc(CCC)ccc2OC)c1 [Compound 60a, 2-(2-methoxy-5-propyl-phenyl)-4-pentylphenol] | 0.031 ± 0.0099 | Full agonists; also recorded: agonist | antagonist | 22 | > 10 | 47 | > 10 µM and ~10 µM | > 10 | – | 6.93 ± 1.06 µM | antagonist | 0 | 0.0173 ± 0.0014 | Full agonists; also recorded: agonist | 0.0399 ± 0.01 | – | – | increase in CB1 receptor affinity compared to the unmethylated parent biphenyl [7]: 21 fold; EC50 [8, 11]: 0.0375 ± 0.0056 µM; inhibition at 10 µM [6, 12]: 66%
CCCCCCc1ccc(O)c(-c2cc(CCC)ccc2O)c1 [Compound 61, 5-Hexyl-5′-propylbiphenyl-2,2′-diol] | 0.0294 ± 0.009 | almost full efficacy; also recorded: partial agonists; also recorded: agonist | antagonist | 0 | > 10 | 139 | ~10.4 µM and 10.4 µM | > 10 | 45 | > 10 µM and ~10 µM | antagonist | 32 | 0.145 ± 0.048 | full agonistic effects; also recorded: full agonists; also recorded: agonist | 0.159 ± 0.018 | – | 0.829 ± 0.278 | selectivity for CB1 versus GPR18 ([3]; Ki CB1 vs estimated GPR18 IC50): approximately 70 fold; selectivity for CB2 versus GPR18 ([3]; Ki CB2 vs estimated GPR18 IC50): ~350 fold
CCCCCCc1ccc(O)c(-c2cc(CCC)ccc2OC)c1 [Compound 61a, 5-Hexyl-2′-methoxy-5′-propylbiphenyl-2-ol] | 0.0238 ± 0.0071 | Full agonists; also recorded: agonist | antagonist | 0 | > 10 | 30 | > 10 µM | > 10 | – | ~10 µM | antagonist | 0 | 0.00957 ± 0.00543 | Full agonists; also recorded: agonist | 0.0385 ± 0.017 | – | – | increase in CB1 receptor affinity of 61a compared to isomer 61b [7]: 33 fold; increase in CB1 receptor affinity compared to the unmethylated parent biphenyl [7]: 15 fold; increase in CB2 receptor affinity of 61a compared to isomer 61b [1]: 12 fold; EC50 [8, 11]: 0.159 ± 0.076 µM; inhibition at 10 µM [6, 12]: 58%
CCCCCCc1ccc(OC)c(-c2cc(CCC)ccc2O)c1 [Compound 61b, 5′-Hexyl-2′-methoxy-5-propylbiphenyl-2-ol] | – | partial agonistic activity; also recorded: agonist | antagonist | 0 | > 10 | 22 | > 10 µM | > 10 | 120 | 3.25 ± 0.29 µM | antagonist | 0 | 0.313 ± 0.125 | CB1-antagonistic activity; also recorded: antagonist | 0.595 ± 0.15 | 0.281 ± 0.101 | – | reduction of CB1 receptor affinity compared to 61 [7]: 2 fold; Kb [8]: 1.85 µM
CCCCCCCCc1ccc(O)c(-c2cc(CCC)ccc2O)c1 [Compound 63] | – | – | – | 0 | > 10 | 123 | 10.7 ± 0.7 µM | > 10 | 0 | > 10 µM | – | 0 | 1.66 ± 0.45 | – | – | 0.955 ± 0.418 | – | efficacy CB1, cAMP accumulation assay [8]: (73%)^b; efficacy CB2, cAMP accumulation assay [2]: (52%)^b
CCCCCc1ccc(O)c(-c2cc(CCCC)ccc2O)c1 [Compound 64] | – | – | – | 0 | > 10 | 94 | 13.9 ± 0.9 µM | > 10 | 21 | > 10 µM | – | 15 | 3.61 ± 1.35 | – | – | 0.234 ± 0.039 | – | efficacy CB1, cAMP accumulation assay [8]: (122%)^b; efficacy CB2, cAMP accumulation assay [2]: (68%)^b
CCCCCCc1ccc(O)c(-c2cc(CCCC)ccc2O)c1 [Compound 65] | – | – | – | 0 | > 10 | 116 | 11 ± 0.7 µM | > 10 | 15 | > 10 µM | – | 36 | 2.6 ± 0.09 | – | – | – | – | Ki ([1]; vs. [3H]CP55,940, read-out: Ki CB2): 0.67 µM; efficacy CB1, cAMP accumulation assay [8]: (95%)^b; efficacy CB2, cAMP accumulation assay [2]: (49%)^b
